# Measured values reported in US7173022B2, “Bicyclic heterocycles as HIV integrase inhibitors” (priority 2004, dated 2007).
# Target: T1, HIV-integrase (Human immunodeficiency virus type 1 group M subtype B, UniProt P12497)
# T1 construct: Recombinant integrase (0.26 ng) was incubated with the beads
# Test: HIV-Integrase Inhibition Activity (SPA bead strand transfer assay)
# Format: biochemical
# Details: recombinant integrase, biotin labeled substrate DNA on SPA beads, P33 labeled target DNA
# Experimental: HIV-Integrase InhibitionActivity. To evaluate in-vitro activity against HIV-integrase, 5 pmole of biotin labeled substrate DNA was bound to 100 μg of Streptavidin coated PVT SPA beads (Amersham Pharmacia Biotech). Recombinant integrase (0.26 ng) was incubated with the beads for 90 min at 37° C. Unbound enzyme was removed by washing the complex followed by addition of inhibitors and 0.1 fmol of P33 labeled target DNA. The reaction was stopped by adding EDTA to a final concentration of 10 mM. Samples were counted in TopCountNXT (Packard) and the CPM was used as a measure of integration. The reaction condition was as described in A. Engelman and R. Craigie, J. Virol 69, 5908–5911 (1995). The sequences of substrate and target DNA were described in Nucleic Acid Research 22, 1121–1122 (1994).
row,Structure (SMILES),IC50 [nM]
1,"CC1(C)CCn2c1nc(C(=O)NCc1ccc(F)cc1)c(O)c2=O [Example 1, N-(4-Fluorobenzyl)-3-hydroxy-8,8-dimethyl-4-oxo-4,6,7,8-tetrahydropyrrolo[1,2-a]pyrimidine-2-carboxamide]",2 to 9
2,"CNC(=O)c1cc(F)ccc1CNC(=O)c1nc2n(c(=O)c1O)CCC2(C)C [Example 2, N-(4-Fluoro-2-(methylcarbamoyl)benzyl)-3-hydroxy-8,8-dimethyl-4-oxo-4,6,7,8-tetrahydropyrrolo[1,2-a]pyrimidine-2-carboxamide]",10 to 49000
3,"CC1(C)CCn2c1nc(C(=O)NCc1ccc(F)cc1-n1cncn1)c(O)c2=O [Example 3, N-(4-fluoro-2-(1H-1,2,4-triazol-1-yl)benzyl)-3-hydroxy-8,8-dimethyl-4-oxo-4,6,7,8-tetrahydropyrrolo[1,2-a]pyrimidine-2-carboxamide]",2 to 9
4,"CC1(C)CCCn2c1nc(C(=O)NCc1ccc(F)cc1)c(O)c2=O [Example 4, 3-Hydroxy-9,9-dimethyl-4-oxo-6,7,8,9-tetrahydro-4H-pyrido[1,2-a]pyrimidine-2-carboxylic acid 4-fluoro-benzylamide]",2 to 9
5,"CNC(=O)c1cc(F)ccc1CNC(=O)c1nc2n(c(=O)c1O)CCCC2(C)C [Example 5, N-(4-Fluoro-2-(methylcarbamoyl)benzyl)-3-hydroxy-9,9-dimethyl-4-oxo-6,7,8,9-tetrahydro-4H-pyrido[1,2-a]pyrimidine-2-carboxamide]",2 to 9
6,"CC1(C)CCCn2c1nc(C(=O)NCc1ccc(F)cc1-n1cncn1)c(O)c2=O [Example 6, N-(4-Fluoro-2-(1H-1,2,4-triazol-1-yl)benzyl)-3-hydroxy-9,9-dimethyl-4-oxo-6,7,8,9-tetrahydro-4H-pyrido[1,2-a]pyrimidine-2-carboxamide]",2 to 9
7,"O=C(NCc1ccc(Cl)c(Cl)c1)c1nc2n(c(=O)c1O)CCC=C2c1ccccc1 [Example 7, N-(3,4-Dichlorobenzyl)-3-hydroxy-4-oxo-9-phenyl-6,7-dihydro-4H-pyrido[1,2-a]pyrimidine-2-carboxamide]",2 to 9
8,"O=C(NCc1ccc(F)cc1)c1nc2n(c(=O)c1O)CCC=C2c1ccccc1 [Example 8, N-(4-Fluorobenzyl)-3-hydroxy-4-oxo-9-phenyl-6,7-dihydro-4H-pyrido[1,2-a]pyrimidine-2-carboxamide]",2 to 9
9,"CNC(=O)c1cc(F)ccc1CNC(=O)c1nc2n(c(=O)c1O)CCC=C2c1ccccc1 [Example 9, N-(4-Fluoro-2-(methylcarbamoyl)benzyl)-3-hydroxy-4-oxo-9-phenyl-6,7-dihydro-4H-pyrido[1,2-a]pyrimidine-2-carboxamide]",2 to 9
10,"O=C(NCc1ccc(F)cc1)c1nc2n(c(=O)c1O)CCC=C2c1cccnc1 [Example 10, N-(4-Fluorobenzyl)-3-hydroxy-4-oxo-9-(pyridin-3-yl)-6,7-dihydro-4H-pyrido[1,2-a]pyrimidine-2-carboxamide]",2 to 9
11,"CNC(=O)c1cc(F)ccc1CNC(=O)c1nc2n(c(=O)c1O)CCC=C2c1cccnc1 [Example 11, N-(4-Fluoro-2-(methylcarbamoyl)benzyl)-3-hydroxy-4-oxo-9-(pyridin-3-yl)-6,7-dihydro-4H-pyrido[1,2-a]pyrimidine-2-carboxamide]",2 to 9
12,"CC1(C)CCCCn2c1nc(C(=O)NCc1ccc(F)cc1)c(O)c2=O [Example 12, N-(4-Fluorobenzyl)-3-hydroxy-10,10-dimethyl-4-oxo-4,6,7,8,9,10-hexahydropyrimido[1,2-a]azepine-2-carboxamide]",2 to 9
13,"CC1(C)CCCCn2c1nc(C(=O)NCc1ccc(F)cc1-n1cncn1)c(O)c2=O [Example 13, N-(4-Fluoro-2-(1H-1,2,4-triazol-1-yl)benzyl)-3-hydroxy-10,10-dimethyl-4-oxo-4,6,7,8,9,10-hexahydropyrimido[1,2-a]azepine-2-carboxamide]",2 to 9
